# Values quoted from earlier work, collected in patent US9827234B1, “Dose-dumping resistant controlled release dosage form” (OSMOTICA KERESKEDELMI ES SZOLGALTATO KFT, priority 2017, dated 2017).
# Key:
# [1] = 5 mg 3× daily, rapid release tablet
compound,measurement,setting,value
"COC(=O)C(c1ccccc1)C1CCCCN1 (centres unmarked) [Methylphenidate, methyl 2-phenyl-2-(piperidin-2-yl)acetate]",enhance the bioavailability of MPH,"consuming alcohol (ethanol), Patrick et al. 2007",up to 40%
same,plasma half-life,in vivo,2 to 3 h
same,Cmax,[1],4.2 ± 1.0 ng/mL
same,Tmax,[1],6.5 ± 1.8 h
same,T½,[1],3.0 ± 0.5 h
